The values below come from PubChem BioAssay AID248 (DTP/NCI, 2004).

Where “and” joins values, the source holds several entries; their conditions need not be identical. Identical values can stand only once. Toxic doses and inconclusive results are not listed. Square brackets hold non-standard residues; d marks the D form. Peptide text beside a SMILES is read from it. Ac5c = NC1(C(=O)O)CCCC1

In the test the test system is L1210 leukemia ip in BDF1 mice, survival T/C. Put plainly: NCI In Vivo Anticancer Drug Screen. Data for tumor model L1210 Leukemia (intraperitoneal) in B6D2F1 (BDF1) mice. Conditions: endpoint: mean survival time, higher = longer survival. In a few lines: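 Transplanted-tumor mice were given test agent; controls received vehicle only. Survival readings from the two groups were divided (treated over control).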

The mark [1] stands for this setting: dose: 100.0 mg/kg/injection, schedule: Q04DX003 (ip), vehicle: saline with Tween-80.
Setting [2] is: dose: 100.0 mg/kg/injection, schedule: Q04DX003 (ip), vehicle: saline.
[3] abbreviates: dose: 200.0 mg/kg/injection, schedule: Q04DX003 (ip), vehicle: saline.
Setting [4] is: dose: 400.0 mg/kg/injection, schedule: Q04DX003 (ip), vehicle: saline.
The mark [5] stands for this setting: dose: 100.0 mg/kg/injection, schedule: Q01DX009 (ip), vehicle: saline.
The mark [6] stands for this setting: dose: 200.0 mg/kg/injection, schedule: Q01DX009 (ip), vehicle: saline.
Where [7] appears, read: dose: 25.0 mg/kg/injection, schedule: Q04DX003 (ip), vehicle: Klucel (hydroxypropylcellulose) (HPC).
The mark [8] stands for this setting: dose: 100.0 mg/kg/injection, schedule: Q04DX003 (ip), vehicle: Klucel (hydroxypropylcellulose) (HPC).
Setting [9] is: dose: 200.0 mg/kg/injection, schedule: Q04DX003 (ip), vehicle: Klucel (hydroxypropylcellulose) (HPC).
The mark [10] stands for this setting: dose: 400.0 mg/kg/injection, schedule: Q04DX003 (ip), vehicle: Klucel (hydroxypropylcellulose) (HPC).

In the case of `Cc1ccc(N2CCOC2=O)cc1N1CCOC1=O`, the T/C is, setting by setting: (dose: 25.0 mg/kg/injection, schedule: Q04DX003 (ip), vehicle: other) 97 % of control; (dose: 50.0 mg/kg/injection, schedule: Q04DX003 (ip), vehicle: other) 104 % of control; (dose: 100.0 mg/kg/injection, schedule: Q04DX003 (ip), vehicle: other) 103 % of control; under setting [1], 94 % of control.

In the case of `CC(=N)N`, the T/C reads like this: under setting [2], 114 % of control; under setting [3], 90 % of control; under setting [4], 111 % of control.

Consider `NC(N)=NC1CCCC1`, for which the T/C under setting [2] was 104 % of control.

Turning to `CCOC(=O)C(=O)CC1=NC2CCCCC2N(C)C1=O` (configuration not stated), the T/C (dose: 50.0 mg/kg/injection, schedule: Q01DX009 (ip), vehicle: saline) was 93 % of control; the T/C under setting [5] is 90 % of control; the T/C under setting [6] is 90 % of control.

As to `COc1cc(N)ccc1C(=O)O`, the T/C under setting [2] was 94 % of control, the T/C under setting [3] is 96 % of control and the T/C under setting [4] is 97 % of control.

On to `O=S(CCO)c1ccc(Cl)cc1` (configuration not stated), for which the T/C (dose: 100.0 mg/kg/injection, schedule: Q04DX002 (ip), vehicle: saline with Tween-80) is 100 % of control and 109 % of control; the T/C under setting [1] is 118 % of control; the T/C (dose: 200.0 mg/kg/injection, schedule: Q04DX002 (ip), vehicle: saline with Tween-80) was 102 % of control and 88 % of control; the T/C (dose: 200.0 mg/kg/injection, schedule: Q04DX003 (ip), vehicle: saline with Tween-80) is 106 % of control; the T/C (dose: 400.0 mg/kg/injection, schedule: Q04DX002 (ip), vehicle: saline with Tween-80) was 98 % of control and 103 % of control; the T/C (dose: 400.0 mg/kg/injection, schedule: Q04DX003 (ip), vehicle: saline with Tween-80) was 100 % of control.

For `Cc1nc(NCc2ccccc2)c2cc[nH]c2n1`, the T/C (dose: 1.56 mg/kg/injection, schedule: Q01DX009 (ip), vehicle: Klucel (hydroxypropylcellulose) (HPC)) was 104 % of control and 111 % of control; the T/C (dose: 3.12 mg/kg/injection, schedule: Q01DX009 (ip), vehicle: Klucel (hydroxypropylcellulose) (HPC)) was 96 % of control and 105 % of control; the T/C (dose: 3.12 mg/kg/injection, schedule: Q04DX003 (ip), vehicle: Klucel (hydroxypropylcellulose) (HPC)) is 106 % of control; the T/C (dose: 5.0 mg/kg/injection, schedule: Q01DX001 (ip), vehicle: saline) is 104 % of control; the T/C (dose: 6.25 mg/kg/injection, schedule: Q01DX009 (ip), vehicle: Klucel (hydroxypropylcellulose) (HPC)) was 103 % of control and 110 % of control; the T/C (dose: 6.25 mg/kg/injection, schedule: Q04DX003 (ip), vehicle: Klucel (hydroxypropylcellulose) (HPC)) was 103 % of control. Further, the T/C is, setting by setting: (dose: 10.0 mg/kg/injection, schedule: Q01DX001 (ip), vehicle: saline) 104 % of control; (dose: 12.5 mg/kg/injection, schedule: Q01DX009 (ip), vehicle: Klucel (hydroxypropylcellulose) (HPC)) 100 % of control and 105 % of control; (dose: 12.5 mg/kg/injection, schedule: Q04DX003 (ip), vehicle: Klucel (hydroxypropylcellulose) (HPC)) 111 % of control; (dose: 20.0 mg/kg/injection, schedule: Q01DX001 (ip), vehicle: saline) 116 % of control; (dose: 25.0 mg/kg/injection, schedule: Q01DX009 (ip), vehicle: Klucel (hydroxypropylcellulose) (HPC)) 93 % of control and 97 % of control; under setting [7], 103 % of control. The T/C was 104 % of control (dose: 40.0 mg/kg/injection, schedule: Q01DX001 (ip), vehicle: saline) and 110 % of control (dose: 80.0 mg/kg/injection, schedule: Q01DX001 (ip), vehicle: saline).

Consider `SCc1ccc(Cl)cc1.[Pb]`, for which the T/C by setting is: (dose: 100.0 mg/kg/injection, schedule: Q04DX002 (ip), vehicle: gum acacia) 88 % of control; (dose: 200.0 mg/kg/injection, schedule: Q04DX002 (ip), vehicle: gum acacia) 98 % of control; (dose: 400.0 mg/kg/injection, schedule: Q04DX002 (ip), vehicle: gum acacia) 109 % of control.

Turning to `NCC(=O)NC1(C(=O)O)CCCC1` (H-Gly-[Ac5c]-OH), the T/C is 104 % of control (dose: 16.0 mg/kg/injection, schedule: Q01DX Z (ip), vehicle: carboxymethylcellulose (CMC)); 109 % of control (dose: 24.0 mg/kg/injection, schedule: Q01DX Z (ip), vehicle: carboxymethylcellulose (CMC)); 103 % of control (dose: 30.0 mg/kg/injection, schedule: Q01DX Z (ip), vehicle: other); 118 % of control (dose: 36.0 mg/kg/injection, schedule: Q01DX Z (ip), vehicle: carboxymethylcellulose (CMC)); 157 % of control (dose: 54.0 mg/kg/injection, schedule: Q01DX017 (ip), vehicle: saline); 121 % of control (dose: 54.0 mg/kg/injection, schedule: Q01DX Z (ip), vehicle: saline). The T/C was 115 % of control (dose: 66.0 mg/kg/injection, schedule: Q01DX Z (ip), vehicle: saline); 103 % of control under setting [2]; 152 % of control (dose: 120.0 mg/kg/injection, schedule: Q01DX Z (ip), vehicle: saline); 156 % of control (dose: 150.0 mg/kg/injection, schedule: Q01DX Z (ip), vehicle: saline); 105 % of control (dose: 180.0 mg/kg/injection, schedule: Q01DX Z (ip), vehicle: carboxymethylcellulose (CMC)); 124 % of control under setting [3]. The T/C is 115 % of control (dose: 225.0 mg/kg/injection, schedule: Q01DX Z (ip), vehicle: saline); 124 % of control (dose: 240.0 mg/kg/injection, schedule: Q01DX Z (ip), vehicle: other); 155 % of control under setting [4]; 88 % of control (dose: 480.0 mg/kg/injection, schedule: Q01DX Z (ip), vehicle: other).

Consider `Cc1cccc(SC(=O)Nc2ccc(Cl)cc2C)c1`, for which the T/C reads like this: (dose: 12.5 mg/kg/injection, schedule: Q01DX009 (ip), vehicle: saline with Tween-80) 91 % of control; (dose: 25.0 mg/kg/injection, schedule: Q01DX009 (ip), vehicle: saline with Tween-80) 95 % of control; (dose: 50.0 mg/kg/injection, schedule: Q01DX009 (ip), vehicle: saline with Tween-80) 119 % of control.

In the case of `CCOP(=O)(CSCC)OCC`, the T/C reads like this: under setting [5], 102 % of control; under setting [2], 94 % of control; under setting [6], 98 % of control; under setting [3], 100 % of control; (dose: 400.0 mg/kg/injection, schedule: Q01DX009 (ip), vehicle: saline) 100 % of control; under setting [4], 92 % of control.

Turning to `O=C(O)c1ccc(C(=O)O)o1`, the T/C by setting is: (dose: 100.0 mg/kg/injection, schedule: Q04DX002 (ip), vehicle: Klucel (hydroxypropylcellulose) (HPC)) 95 % of control; (dose: 200.0 mg/kg/injection, schedule: Q04DX002 (ip), vehicle: Klucel (hydroxypropylcellulose) (HPC)) 91 % of control; (dose: 400.0 mg/kg/injection, schedule: Q04DX002 (ip), vehicle: Klucel (hydroxypropylcellulose) (HPC)) 91 % of control.

Consider `O=c1oc2ccc(Cl)cc2c2ccccc12`, for which the T/C was 98 % of control under setting [8], 100 % of control under setting [9] and 104 % of control under setting [10].

Regarding `CCCC(Cl)C(=O)Nc1cccc(O)c1` (configuration not stated), the T/C is, setting by setting: (dose: 100.0 mg/kg/injection, schedule: Q01DX009 (ip), vehicle: saline with Tween-80) 91 % of control; (dose: 200.0 mg/kg/injection, schedule: Q01DX009 (ip), vehicle: saline with Tween-80) 91 % of control.

For the compound `C=CCc1cc(CNCCCO)c(O)c(OC)c1`, the T/C is 93 % of control under setting [7]; 95 % of control (dose: 50.0 mg/kg/injection, schedule: Q04DX003 (ip), vehicle: Klucel (hydroxypropylcellulose) (HPC)); 93 % of control under setting [8].

As to `COc1cc(C(=O)N2CCCCCCC2)cc(OC)c1OC`, the T/C is 98 % of control under setting [8] and 102 % of control under setting [9].

With `O=CN1CCCC1C(=O)O` (configuration not stated), the T/C (dose: 25.0 mg/kg/injection, schedule: Q01DX009 (ip), vehicle: water) was 98 % of control; the T/C (dose: 50.0 mg/kg/injection, schedule: Q01DX009 (ip), vehicle: water) was 101 % of control; the T/C (dose: 100.0 mg/kg/injection, schedule: Q01DX009 (ip), vehicle: water) is 95 % of control; the T/C (dose: 200.0 mg/kg/injection, schedule: Q01DX009 (ip), vehicle: water) was 101 % of control.

For `Cc1ccc2nc(Nc3ccc(Cl)cc3)cc(C(O)C3CCCCN3)c2c1` (configuration not stated), the T/C runs as follows: under setting [8], 96 % of control; under setting [9], 92 % of control; under setting [10], 97 % of control.
